Assay results published in US20230255943A1, “MMP-9 AND MMP-12 INHIBITION FOR TREATING SPINAL CORD INJURY OR RELATED INJURY TO NEUROLOGICAL TISSUE” (The University of Birmingham, priority 2020, published 2023).

Assays:
Format in all cases: in vivo, mouse
mice with CC SCI = experiment: Assessment of neuropathic pain (mechanical, thermal, cold allodynia) in CC model
Method: CC SCI was administered at the T7-T8 vertebral level after exposure of T6-T9 by laminectomy. The aneurysm clip applicator was oriented in a bilateral direction and an aneurysm clip with a closing force of 24 g was applied extradurally for 60 s, as described previously (A. S. Rivlin, C. H. Tator, Effect of duration of acute spinal cord compression in a new acute cord injury model in the rat. Surg Neurol 10, 38-43 (1978):E. Esposito, I. Paterniti, E. Mazzon, T. Genovese, M. Galuppo, R. Meli, P. Bramanti, S. Cuzzocrea, MK801 attenuates secondary injury in a mouse experimental compression model of spinal cord trauma. BMC Neurosci 12, 31 (2011)).
The urinary bladders were manually emptied twice daily until bladder function was regained. Adult male C57BL6 mice (25-30 g) (Charles River, Margate, UK) were randomly allocated to either: (1), Sham (control; laminectomy but no CC SCI); (2), CC SCI+vehicle; (3), CC SCI+200 mg/kg AZD1236 (oral); (4), CC SCI+5 mg/kg AZD1236 (it). All experiments were performed with n=6 mice/group and repeated on 3 independent occasions (total=18 mice/group/test).
Mechanical allodynia was measured in mice using a series of von Frey filaments (0.25 g-15 g) applied to the plantar surface of the hind-paw by an experimenter masked to the treatment conditions and withdrawal of the paw was recorded as a positive response (F. Nasirinezhad, S. Gajavelli, B. Priddy, S. Jergova, J. Zadina, J. Sagen, Viral vectors encoding endomorphins and serine histogranin attenuate neuropathic pain symptoms after spinal cord injury in rats. Mol Pain 11, 2 (2015)).
The hair with the lowest force required to elicit a paw withdrawal response was recorded. […]
Thermal hyperalgesia was tested using established methods of plantar heat sensitivity tests described previously (S. Surey, M. Berry, A. Logan, R. Bicknell, Z. Ahmed, Differential cavitation, angiogenesis and wound-healing responses in injured mouse and rat spinal cords. Neuroscience 275, 62-80 (2014)). […] The reaction time of paw withdrawal was recorded for five separate tests for each hind limb with a 30-s interval before re-testing on the same paw. […]
Cold allodynia was measured by an experimenter masked to the treatment conditions as the number of foot withdrawal responses after application of an acetone drop to the plantar surface of the paw (F. Nasirinezhad, S. Gajavelli, B. Priddy, S. Jergova, J. Zadina, J. Sagen, Viral vectors encoding endomorphins and serine histogranin attenuate neuropathic pain symptoms after spinal cord injury in rats. Mol Pain 11, 2 (2015)). Testing was repeated five times with an interval of 5 min between each test and the response frequency to acetone was expressed as a percent response frequency ([number of paw withdrawals/number of trials]×100).

[1] = test system: mice with DC crush injury; experiment: CSF biomarkers of SCI (S100β, NSE, GFAP, pNF-H, NF-L); conditions: 3 d after injury
[2] = test system: mice with DC crush injury; experiment: Spinal cord water content (oedema) after DC crush injury in mice; conditions: IP, twice daily

SMILES | cold allodynia, improvement (mice with CC SCI; oral delivery) | mechanical allodynia, improvement (mice with CC SCI; oral delivery) | thermal allodynia, improvement (mice with CC SCI; oral delivery) | improvements in mechanical, thermal and cold allodynia vs pregabalin and gabapentin (mice with CC SCI; pregabalin 30 mg/kg, gabapentin 100 mg/kg) | levels of S100β, NSE, GFAP, pNF-H and NF-L in CSF [1] | SCI-induced oedema with tool inhibitors singly or in combination (FIG. 3D) [2]
C[C@]1(CS(=O)(=O)N2CC=C(C#Cc3cnc(C4CC4)nc3)CC2)NC(=O)NC1=O [AZD1236] | > 80 % of sham-treated controls | > 80 % of sham-treated controls | > 80 % of sham-treated controls | significantly better | significantly attenuated all of these biomarkers to near sham-control levels | –
CCN(CC)Cc1cc(C)c(N(Cc2ccccc2)S(=O)(=O)c2ccc(OC)cc2)c(C(=O)NO)c1 [MMP-9 Inhibitor I, reference compound] | – | – | – | – | – | suboptimal therapeutic benefits
